Patent US8354425B2, “Azabicyclic carboxamide derivatives, preparation thereof and therapeutic use thereof” (Sanofi, priority 2008, dated 2013)

What was measured:
TRPV1 receptor = target: T1, TRPV1 receptor (Rattus norvegicus, UniProt O35433); assay: Test of inhibition of the current induced with capsaicin on rat DRGs (whole-cell patch-clamp); format: cell-based; conditions: inhibition of control capsaicin response, newborn rat DRG neurones
T1 construct: DRG neurones naturally express the TRPV1 receptor; endogenous in cells; host or cells: primary culture of newborn rat dorsal root ganglion neurones
Description: Test of inhibition of the current induced with capsaicin on rat DRGs • Primary culture of rat dorsal root ganglion (DRG) cells:
DRG neurones naturally express the TRPV1 receptor.
The primary cultures of newborn rat DRGs are prepared using 1-day-old rats. Briefly, after dissection, the ganglions are trypsinized and the cells dissociated by mechanical trituration. The cells are resuspended in an Eagle basal culture medium containing 10% foetal calf serum, 25 mM KCl, 2 mM glutamine, 100 μg/ml gentamicin and 50 ng/ml of NGF, and then deposited on glass slides coated with laminin (0.25×10^6 cells per slide), which are then placed in Corning 12-well dishes. The cells are incubated at 37° C. in a humidified atmosphere containing 5% CO2 and 95% air. […]
The measuring chambers (volume 800 μl) containing the cell preparation are placed on the platform of an inverted microscope (Olympus IMT2) equipped with Hoffman optics (Modulation Contrast, New York) and observed at a magnification of 400×. […] The overall currents (membrane potential set at −60 mV) are recorded with an Axopatch 1D amplifier (Axon Instruments, Foster City, Calif.), connected to a PC running the Pclamp8 software (Axon Instrument). The current plots are recorded on paper and simultaneously digitized (sampling frequency 15 to 25 Hz) and acquired on the hard drive of the PC. […]

local TRPV1 receptors = target: T2, local TRPV1 receptors (Mus musculus, UniProt Q704Y3); assay: Pain induced by intraplantar administration of capsaicin to mice; format: in vivo; conditions: 10 mg/kg orally 120 minutes before intraplantar capsaicin, n=10
T2 construct: from tissue; host or cells: living mouse, hind leg (intraplantar capsaicin injection)
Description: Pain induced by intraplantar administration of capsaicin to mice.
The intraplantar injection of capsaicin to mice rapidly produces short-lived nociceptive behaviour, which is reflected by licking, biting and flexing of the administered leg. These nociceptive responses are probably associated with the activation of the local TRPV1 receptors by the capsaicin.
(E)-Capsaicin is initially diluted to 3 mg/ml in DMSO, and then diluted again for its final use to 1.5 μg/20 μl in physiological saline. The administration of solvent has no effect on the behaviour of the mouse. The capsaicin is injected into the hind legs of the animal, on the upper face.
The test compounds are administered orally 120 minutes before the injection of capsaicin. Two hours after administration of the compounds, the mice are placed in a glass beaker. The nociceptive behaviour of the animals is then assessed immediately by the experimenter, and the duration of the capsaicin-induced behavioural manifestations is timed over a period of 2 minutes (licking and biting, total or partial flexure of the injected leg).
For each compound, an inhibition corresponding to the mean of the capsaicin-induced nociceptive responses, in response to a dose of test product (expressed in mg/kg) administered orally to a sample of a given number (n) of mice, is determined. […]

T1 sequence (O35433 whole entry): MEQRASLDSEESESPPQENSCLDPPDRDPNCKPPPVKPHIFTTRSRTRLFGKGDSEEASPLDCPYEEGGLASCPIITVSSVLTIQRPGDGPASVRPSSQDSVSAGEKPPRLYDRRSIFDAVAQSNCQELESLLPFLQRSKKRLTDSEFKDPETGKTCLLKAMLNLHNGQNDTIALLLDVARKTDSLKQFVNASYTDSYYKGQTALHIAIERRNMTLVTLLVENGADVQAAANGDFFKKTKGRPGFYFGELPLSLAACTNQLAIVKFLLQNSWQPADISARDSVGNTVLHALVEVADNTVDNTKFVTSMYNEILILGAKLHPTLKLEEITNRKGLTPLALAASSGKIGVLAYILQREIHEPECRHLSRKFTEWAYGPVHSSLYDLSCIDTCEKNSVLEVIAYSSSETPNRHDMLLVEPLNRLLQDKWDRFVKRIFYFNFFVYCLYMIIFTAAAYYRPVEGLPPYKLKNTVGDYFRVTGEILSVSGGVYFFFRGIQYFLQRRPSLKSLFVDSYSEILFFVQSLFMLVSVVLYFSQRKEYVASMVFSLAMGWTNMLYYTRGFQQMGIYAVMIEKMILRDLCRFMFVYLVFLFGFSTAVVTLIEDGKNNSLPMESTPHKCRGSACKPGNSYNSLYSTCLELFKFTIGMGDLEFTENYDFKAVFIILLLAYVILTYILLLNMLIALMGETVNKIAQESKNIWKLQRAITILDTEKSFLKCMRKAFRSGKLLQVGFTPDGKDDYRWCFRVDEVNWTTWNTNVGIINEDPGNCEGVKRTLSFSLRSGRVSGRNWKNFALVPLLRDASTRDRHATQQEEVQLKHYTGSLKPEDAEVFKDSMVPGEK
T2 sequence (Q704Y3 whole entry): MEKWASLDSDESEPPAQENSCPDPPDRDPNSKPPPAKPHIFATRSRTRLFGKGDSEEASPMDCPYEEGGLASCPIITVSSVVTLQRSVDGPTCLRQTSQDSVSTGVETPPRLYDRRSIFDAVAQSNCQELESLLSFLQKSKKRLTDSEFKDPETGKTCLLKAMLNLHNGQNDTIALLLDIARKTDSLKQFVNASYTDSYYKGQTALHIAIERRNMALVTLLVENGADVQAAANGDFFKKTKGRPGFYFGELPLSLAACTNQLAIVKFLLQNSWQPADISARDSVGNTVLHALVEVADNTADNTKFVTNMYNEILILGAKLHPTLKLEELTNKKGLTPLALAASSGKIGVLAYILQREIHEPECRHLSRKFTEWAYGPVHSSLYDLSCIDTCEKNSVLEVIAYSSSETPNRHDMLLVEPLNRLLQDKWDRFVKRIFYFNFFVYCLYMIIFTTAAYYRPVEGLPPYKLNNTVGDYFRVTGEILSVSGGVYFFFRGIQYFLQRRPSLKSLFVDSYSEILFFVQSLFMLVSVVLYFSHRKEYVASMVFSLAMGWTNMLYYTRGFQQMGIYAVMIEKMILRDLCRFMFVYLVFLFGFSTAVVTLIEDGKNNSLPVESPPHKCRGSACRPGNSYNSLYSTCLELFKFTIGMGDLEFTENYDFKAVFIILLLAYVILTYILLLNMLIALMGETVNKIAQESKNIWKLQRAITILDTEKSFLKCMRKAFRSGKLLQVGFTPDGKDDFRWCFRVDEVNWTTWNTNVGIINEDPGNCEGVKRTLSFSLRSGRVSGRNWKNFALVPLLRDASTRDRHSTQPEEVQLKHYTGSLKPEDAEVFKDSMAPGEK

Structure (SMILES) | inhibition at 0.1 µM (TRPV1 receptor; compound at 100 nM) | melting point | % inhibition of the capsaicin-induced nociceptive responses (local TRPV1 receptors) | inhibition at 0.001 µM (TRPV1 receptor; compound at 1 nM)
O=C(Nc1cc2cc[nH]c2cn1)c1cc2cc(F)ccc2n1Cc1cccc(F)c1 [Compound 8, N-(1H-Pyrrolo[2,3-c]pyrid-5-yl)-5-fluoro-1-[(3-fluorophenyl]methyl]-1H-indole-2-carboxamide] | 67.5% | 203 to 204 °C |  | 
O=C(Nc1cnc2[nH]ccc2c1)c1cc2cc(F)ccc2n1Cc1cccc(F)c1 [Compound 2, N-[1H-Pyrrolo[2,3-b]pyrid-5-yl]-5-fluoro-1-(3-fluorobenzyl)-1H-indole-2-carboxamide] |  |  | 61% (±6%) | 82%
